ChEMBL document CHEMBL1158899, “Synthesis and structure-phytotoxicity relationships of acetylenic phenols and chromene metabolites, and their analogues, from the grapevine pathogen Eutypa lata” (J Nat Prod, 2003)

Assays:
Vitis vinifera [1] = test: Phytotoxicity against grape leaf by leaf disk assay; assay type: organism-based; details: in vivo
Vitis vinifera [2] = test: Phytotoxicity against grape leaf assessed as decrease in chlorophyll level after 64 hrs by leaf disk assay relative to control; assay type: organism-based; parameters: scale not given: the % may be the effect or the level left; details: in vivo

Row | Structure (SMILES) | Activity (Vitis vinifera [1]) | Activity (Vitis vinifera [2]) [%]
1 | C=C(C)C#Cc1cc(C=O)ccc1O [EUTYPINE] | Active | –
2 | CC1(C)C=Cc2cc(CO)ccc2O1 [EULATACHROMENE] | – | 60
3 | C=C(C)C#Cc1cc(O)ccc1O [SICCAYNE] | Not Active | –
